The record followed here is ChEMBL document CHEMBL3046800, “Tricyclic cyanoguanidines: synthesis, site of action and insecticidal activity of a novel class of reversible acetylcholinesterase inhibitors” (2002).

What all share (type): functional
One experiment has as its system Nilaparvata lugens. Nature of the experiment: Insecticidal activity against Nilaparvata lugens (brown planthopper) infested in compound-pretreated rice seedling measured 6 days post-infestation.
In another experiment the test system is Peregrinus maidis. Nature of the experiment: Insecticidal activity against Peregrinus maidis (corn hopper) infested compound-pretreated corn seed measured 6 days post-infestation.
A further experiment has as its system Nephotettix cincticeps. Nature of the experiment: Insecticidal activity against Nephotettix cincticeps (green rice leafhopper) infested in compound-pretreated rice seedling measured 6 days post-infestation.

Turning to `CC12CC(c3ccccc3O1)N(C(=O)C(F)(F)F)/C(=N/C#N)N2` (stereo not given), the LC80 in the experiment on Nilaparvata lugens is more than 100 ppm; in the experiment on Peregrinus maidis it was less than 250 ppm; with Nephotettix cincticeps, more than 100 ppm.
For `N#C/N=C1\NC2Cc3ccccc3C(C2)N1` (stereo not given), the LC80 in the experiment with Nilaparvata lugens was less than 100 ppm; in the experiment on Peregrinus maidis, less than 2.5 ppm; with Nephotettix cincticeps it was less than 10 ppm.
For the molecule `CC(=O)N1/C(=N/C#N)NC2(C)CC1c1ccc(F)cc1O2` (stereo not given), the LC80 was more than 100 ppm in the experiment with Nilaparvata lugens, more than 250 ppm in the experiment with Peregrinus maidis and more than 100 ppm in the experiment on Nephotettix cincticeps.
Turning to `CCC1C2N/C(=N\C#N)NC1c1ccccc1O2` (mixture of isomers), the LC80 is more than 100 ppm in the experiment with Nilaparvata lugens and less than 250 ppm with Peregrinus maidis.
For `C[C@@H]1[C@H]2N/C(=N/C#N)N[C@]1(C)Cc1ccccc12` (relative stereo) the same measures were less than 1 ppm and less than 10 ppm.
Consider `C[C@@H]1[C@H]2N/C(=N/C#N)N[C@]1(C)Oc1ccccc12` (relative stereo), for which the LC80 was less than 1 ppm in the experiment on Nilaparvata lugens, less than 50 ppm in the experiment on Peregrinus maidis and more than 100 ppm with Nephotettix cincticeps.
Consider `CCC12N/C(=N\C#N)NC(c3ccccc3O1)C2C` (mixture of isomers), for which the LC80 is listed as more than 100 ppm in the experiment on Nilaparvata lugens, more than 250 ppm with Peregrinus maidis and more than 100 ppm in the experiment on Nephotettix cincticeps.
With `CC(=O)N1/C(=N\C#N)NC2CC1Cc1ccccc12` (stereo not given), the LC80 in the experiment on Nilaparvata lugens was more than 100 ppm; in the experiment with Peregrinus maidis it was less than 10 ppm.
Consider `COC(=O)N1/C(=N/C#N)NC2(C)CC1c1ccccc1O2` (stereo not given), for which the LC80 in the experiment on Nilaparvata lugens is on record as less than 10 ppm; with Peregrinus maidis, more than 250 ppm; in the experiment on Nephotettix cincticeps, less than 10 ppm.
Consider `CC1c2ccccc2C2CC1N/C(=N\C#N)N2` (stereo not given), for which the results for the LC80 in the experiment with Peregrinus maidis and in the experiment with Nephotettix cincticeps were less than 2.5 ppm and less than 10 ppm, respectively.
Consider `CCC(=O)N1/C(=N/C#N)NC2(C)CC1c1ccccc1O2` (stereo not given), for which the LC80 in the experiment with Nilaparvata lugens is less than 10 ppm; in the experiment on Peregrinus maidis, less than 250 ppm; in the experiment on Nephotettix cincticeps, less than 100 ppm.
With `COc1ccc2c(c1OC)OC1(C)CC2N/C(=N/C#N)N1` (stereo not given), the LC80 is recorded as more than 100 ppm in the experiment with Nilaparvata lugens, less than 250 ppm in the experiment on Peregrinus maidis and more than 100 ppm in the experiment with Nephotettix cincticeps.
Take `CC12CC(c3ccccc3O1)N(Cc1ccccc1)/C(=N/C#N)N2` (stereo not given): the values for the LC80 in the experiment with Nilaparvata lugens, with Peregrinus maidis and in the experiment with Nephotettix cincticeps were more than 100 ppm, more than 250 ppm and less than 100 ppm, respectively.
For `CC12CC(N/C(=N/C#N)N1)c1c(Cl)cc(Cl)cc1O2` (stereo not given) the same measures were more than 100 ppm, less than 250 ppm and less than 10 ppm.
For `CC12CC(N/C(=N/C#N)N1)c1ccc(F)cc1O2` (stereo not given) the same measures were less than 10 ppm, less than 250 ppm and more than 100 ppm.
On to `C[C@H]1[C@H]2N/C(=N/C#N)N[C@]1(C)Cc1ccccc12` (relative stereo), for which the values for the LC80 with Peregrinus maidis and in the experiment with Nephotettix cincticeps were less than 2.5 ppm and less than 1 ppm, respectively.
`COc1cccc2c1C1CC(C)(N/C(=N\C#N)N1)O2` (stereo not given): the results for the LC80 in the experiment on Nilaparvata lugens, in the experiment on Peregrinus maidis and with Nephotettix cincticeps were more than 100 ppm, less than 50 ppm and more than 100 ppm, respectively.
`C=CCN1/C(=N/C#N)NC2(C)CC1c1ccccc1O2` (stereo not given): the LC80 is reported as less than 100 ppm in the experiment with Nilaparvata lugens, more than 250 ppm in the experiment on Peregrinus maidis and more than 100 ppm in the experiment on Nephotettix cincticeps.
For `C[C@@H]1[C@H]2Cc3ccccc3[C@@H]1N/C(=N/C#N)N2` (relative stereo), the LC80 with Nilaparvata lugens was less than 100 ppm; in the experiment with Peregrinus maidis, less than 250 ppm; with Nephotettix cincticeps it was less than 0.1 ppm.
For `CC1C2N/C(=N\C#N)NC1c1ccccc1O2` (mixture of isomers), in that order: less than 100 ppm, more than 250 ppm and more than 100 ppm.
Turning to `CC12CC(N/C(=N/C#N)N1)c1ccc(Cl)cc1O2` (stereo not given), the LC80 in the experiment with Nilaparvata lugens was less than 100 ppm; in the experiment with Peregrinus maidis, less than 50 ppm; in the experiment on Nephotettix cincticeps it was more than 100 ppm.
For `CCC12CC(N/C(=N/C#N)N1)c1ccccc1O2` (stereo not given) the same measures were less than 10 ppm, more than 250 ppm and more than 100 ppm.
For `CC12CC(c3ccccc3O1)N(S(C)(=O)=O)/C(=N/C#N)N2` (stereo not given) the same measures were more than 100 ppm, less than 50 ppm and more than 100 ppm.
For `CN1/C(=N/C#N)NC2(C)CC1c1ccc(F)cc1O2` (stereo not given), in the experiment with Peregrinus maidis, the LC80 is less than 10 ppm.
With `COC(=O)CN1/C(=N/C#N)NC2(C)CC1c1ccccc1O2` (stereo not given), the values for the LC80 in the experiment on Nilaparvata lugens, in the experiment with Peregrinus maidis and in the experiment on Nephotettix cincticeps were less than 100 ppm, less than 50 ppm and less than 100 ppm, respectively.
`CC12CC(N/C(=N/C#N)N1)c1cc(Cl)ccc1O2` (stereo not given): the LC80 in the experiment with Nilaparvata lugens is on record as more than 100 ppm; in the experiment on Peregrinus maidis, more than 250 ppm; with Nephotettix cincticeps it was more than 100 ppm.
With `CC(=O)N1/C(=N/C#N)NC2(C)CC1c1ccccc1O2` (stereo not given), the values for the LC80 in the experiment with Nilaparvata lugens, in the experiment on Peregrinus maidis and in the experiment on Nephotettix cincticeps were less than 10 ppm, less than 250 ppm and less than 10 ppm, respectively.
For the molecule `C[C@H]1[C@H]2N/C(=N/C#N)N[C@]1(C)Oc1ccccc12` (relative stereo), the LC80 in the experiment with Nilaparvata lugens is less than 100 ppm; in the experiment on Peregrinus maidis it was more than 250 ppm; in the experiment with Nephotettix cincticeps, less than 1 ppm.
For `CCN1/C(=N/C#N)NC2(C)CC1c1ccccc1O2` (stereo not given) the same measures were less than 10 ppm, more than 250 ppm and more than 100 ppm.
In the case of `CC12CC(N/C(=N/C#N)N1)c1cc(Cl)cc(Cl)c1O2` (stereo not given), the LC80 with Nilaparvata lugens was more than 100 ppm; in the experiment on Peregrinus maidis, more than 250 ppm; in the experiment on Nephotettix cincticeps, more than 100 ppm.
For the molecule `CCCC(=O)N1/C(=N/C#N)NC2(C)CC1c1ccccc1O2` (stereo not given), the LC80 in the experiment on Nilaparvata lugens was less than 10 ppm; in the experiment on Peregrinus maidis it was more than 250 ppm; in the experiment on Nephotettix cincticeps, less than 100 ppm.
For the molecule `CC12CC(c3ccccc3O1)N(Cc1ccccn1)/C(=N/C#N)N2` (stereo not given), the LC80 was less than 100 ppm in the experiment on Nilaparvata lugens, less than 50 ppm in the experiment on Peregrinus maidis and more than 100 ppm with Nephotettix cincticeps.
For `Cc1cccc2c1OC1(C)CC2N/C(=N/C#N)N1` (stereo not given), in that order: more than 100 ppm, more than 250 ppm and more than 100 ppm.
For `CCC1C2N/C(=N/C#N)NC1(C)Oc1ccccc12` (stereo not given), in that order: more than 100 ppm, more than 250 ppm and less than 10 ppm.
Consider `N#C/N=C1/NC2CC(c3ccccc3)(N1)Oc1ccccc12` (stereo not given), for which the figures for the LC80 in the experiment on Nilaparvata lugens, in the experiment with Peregrinus maidis and with Nephotettix cincticeps were more than 100 ppm, less than 50 ppm and less than 10 ppm, respectively.
Turning to `COC(=O)N1/C(=N/C#N)NC2(C)CC1c1ccc(F)cc1O2` (stereo not given), the LC80 is given as less than 250 ppm in the experiment with Peregrinus maidis and less than 10 ppm with Nephotettix cincticeps.
On to `CC12CC(N/C(=N/C#N)N1)c1cccc(F)c1O2` (stereo not given), for which the LC80 in the experiment on Nilaparvata lugens is more than 100 ppm; in the experiment with Peregrinus maidis, more than 250 ppm; in the experiment with Nephotettix cincticeps, more than 100 ppm.
Consider `CC12CC(c3ccccc3O1)N(C[Si](C)(C)C)/C(=N/C#N)N2` (stereo not given), for which the values for the LC80 with Nilaparvata lugens, in the experiment on Peregrinus maidis and in the experiment on Nephotettix cincticeps were less than 100 ppm, more than 250 ppm and more than 100 ppm, respectively.
As for `CC(=O)N1/C(=N/C#N)NC2Cc3ccccc3C1C2` (stereo not given), the LC80 is on record as more than 250 ppm in the experiment with Peregrinus maidis and less than 10 ppm with Nephotettix cincticeps.
As to `C[C@H]1[C@H]2Cc3ccccc3[C@@H]1N/C(=N/C#N)N2` (relative stereo), the LC80 with Nilaparvata lugens is less than 10 ppm; with Peregrinus maidis, less than 250 ppm.
